ChEMBL document CHEMBL3217456 (Medchemcomm, 2014)
Each block holds one molecule with its values, some of them ahead of it. Activity calls are given as the source filed them. No cut-off for these calls is given here.

Assays:
Histamine H4 receptor [1] = molecular target: T1, Histamine H4 receptor (Homo sapiens, UniProt Q9H3N8); test: Antagonist activity at human recombinant histamine H4 receptor-RGS19 fusion protein expressed in Sf9 cells coexpressing Galphai2,Gbeta1gamma2 assessed as inhibition of histamine-induced [35S]GTPgammaS binding after 90 mins by liquid scintillation counting; assay type: functional
Histamine H2 receptor [2] = molecular target: T2, Histamine H2 receptor (Homo sapiens, UniProt P25021); test: Agonist activity at human recombinant histamine H2 receptor-Gsalphas fusion protein expressed in Sf9 cells assessed as [35S]GTPgammaS binding after 90 mins by liquid scintillation counting; assay type: functional
Histamine H3 receptor [3] = molecular target: T3, Histamine H3 receptor (Homo sapiens, UniProt Q9Y5N1); test: Intrinsic activity at human recombinant histamine H3 receptor expressed in Sf9 cells coexpressing Galphai2,Gbeta1gamma2 and RGS4 assessed as [35S]GTPgammaS binding at 10 uM after 90 mins by liquid scintillation counting relative to histamine; assay type: functional
Histamine H3 receptor [4] = molecular target: T3, Histamine H3 receptor; test: Antagonist activity at human recombinant histamine H3 receptor expressed in Sf9 cells coexpressing Galphai2,Gbeta1gamma2 and RGS4 assessed as inhibition of histamine-induced [35S]GTPgammaS binding after 90 mins by liquid scintillation counting; assay type: functional
[5] = molecular target: Histamine H1 receptor (Homo sapiens) (UniProt P35367); conditions: Sf9
Histamine H4 receptor [6] = molecular target: T1, Histamine H4 receptor; test: Intrinsic activity at human recombinant histamine H4 receptor-RGS19 fusion protein expressed in Sf9 cells coexpressing Galphai2,Gbeta1gamma2 assessed as [35S]GTPgammaS binding at 10 uM after 90 mins by liquid scintillation counting relative to histamine; assay type: functional
Histamine H3 receptor [7] = molecular target: T3, Histamine H3 receptor; test: Intrinsic activity at human recombinant histamine H3 receptor expressed in Sf9 cells coexpressing Galphai2,Gbeta1gamma2 and RGS4 preincubated for 2 mins before [gamma32P]GTP addition measured after 20 mins by steady-state GTPase activity assay relative to histamine
[8] = molecular target: Histamine H1 receptor (Homo sapiens) (UniProt P35367); test: (§1) Antagonist activity at human recombinant histamine H1 receptor expressed in Sf9 cells coexpressing RGS4 assessed as inhibition of histamine-induced […] hydrolysis preincubated for 2 mins before [gamma32P]GTP addition measured after 20 mins by steady-state GTPase activity assay; assay type: functional
Histamine H3 receptor [9] = molecular target: T3, Histamine H3 receptor; test: as §1, with “H3” for “H1”, “coexpressing Galphai2,Gbeta1gamma2 and” for “coexpressing”; assay type: functional
[10] = molecular target: Histamine H2 receptor (Cavia porcellus) (UniProt P47747); test: Antagonist activity at guinea pig histamine H2 receptor assessed as reduction of histamine-induced maximal response after 30 mins
Histamine H2 receptor [11] = molecular target: T2, Histamine H2 receptor; test: (§2) Antagonist activity at human recombinant histamine H2 receptor-Gsalphas fusion protein expressed in Sf9 cells assessed as inhibition of histamine-induced […] hydrolysis preincubated for 2 mins before [gamma32P]GTP addition measured after 20 mins by steady-state GTPase activity assay; assay type: functional
Histamine H4 receptor [12] = molecular target: T1, Histamine H4 receptor; test: as §2, with “H4 receptor-RGS19” for “H2 receptor-Gsalphas”, “cells coexpressing Galphai2,Gbeta1gamma2” for “cells”; assay type: functional
Histamine H2 receptor [13] = molecular target: T2, Histamine H2 receptor; test: Intrinsic activity at human recombinant histamine H2 receptor-Gsalphas fusion protein expressed in Sf9 cells preincubated for 2 mins before [gamma32P]GTP addition measured after 20 mins by steady-state GTPase activity assay relative to histamine
Histamine H2 receptor [14] = molecular target: T4, Histamine H2 receptor (Cavia porcellus, UniProt P47747); test: Antagonist activity at guinea pig histamine H2 receptor assessed as inhibition of histamine-induced response after 30 mins; conditions: read-out: pA2 (converted)
Histamine H4 receptor [15] = molecular target: T1, Histamine H4 receptor; test: Agonist activity at human recombinant histamine H4 receptor-RGS19 fusion protein expressed in Sf9 cells coexpressing Galphai2,Gbeta1gamma2 assessed as [35S]GTPgammaS binding after 90 mins by liquid scintillation counting; assay type: functional
Histamine H3 receptor [16] = molecular target: T3, Histamine H3 receptor; test: Agonist activity at human recombinant histamine H3 receptor expressed in Sf9 cells coexpressing Galphai2,Gbeta1gamma2 and RGS4 assessed as [35S]GTPgammaS binding after 90 mins by liquid scintillation counting; assay type: functional
[17] = molecular target: Histamine H1 receptor (Homo sapiens) (UniProt P35367); test: Intrinsic activity at human recombinant histamine H1 receptor expressed in Sf9 cells coexpressing RGS4 preincubated for 2 mins before [gamma32P]GTP addition measured after 20 mins by steady-state GTPase activity assay relative to histamine
Histamine H4 receptor [18] = molecular target: T1, Histamine H4 receptor; test: Intrinsic activity at human recombinant histamine H4 receptor-RGS19 fusion protein expressed in Sf9 cells coexpressing Galphai2,Gbeta1gamma2 preincubated for 2 mins before [gamma32P]GTP addition measured after 20 mins by steady-state GTPase activity assay relative to histamine
Histamine H4 receptor [19] = molecular target: T1, Histamine H4 receptor; test: Agonist activity at human recombinant histamine H4 receptor-RGS19 fusion protein expressed in Sf9 cells coexpressing Galphai2,Gbeta1gamma2 preincubated for 2 mins before [gamma32P]GTP addition measured after 20 mins by steady-state GTPase activity assay
[20] = molecular target: Histamine H2 receptor (Cavia porcellus) (UniProt P47747); test: Agonist activity at guinea pig histamine H2 receptor assessed as potentiation of histamine-induced response after 30 mins relative to histamine
Histamine H2 receptor [21] = molecular target: T2, Histamine H2 receptor; test: Intrinsic activity at human recombinant histamine H2 receptor-Gsalphas fusion protein expressed in Sf9 cells assessed as [35S]GTPgammaS binding at 10 uM after 90 mins by liquid scintillation counting relative to histamine; assay type: functional
Histamine H1 receptor = Histamine H1 receptor (Cavia porcellus, UniProt P31389); test: Antagonist activity at guinea pig ileum histamine H1 receptor assessed as inhibition of histamine-induced response after 10 to 15 mins; assay type: tissue-based; conditions: read-out: pA2 (converted)
Histamine H2 receptor [22] = molecular target: T4, Histamine H2 receptor; test: Agonist activity at guinea pig atrium histamine H2 receptor assessed as potentiation of histamine-induced response after 30 mins; parameters: species or system Cardiac atrium
Histamine H2 receptor [23] = molecular target: T2, Histamine H2 receptor; test: Agonist activity at human recombinant histamine H2 receptor-Gsalphas fusion protein expressed in Sf9 cells preincubated for 2 mins before [gamma32P]GTP addition measured after 20 mins by steady-state GTPase activity assay

T3 sequence (Q9Y5N1 whole entry): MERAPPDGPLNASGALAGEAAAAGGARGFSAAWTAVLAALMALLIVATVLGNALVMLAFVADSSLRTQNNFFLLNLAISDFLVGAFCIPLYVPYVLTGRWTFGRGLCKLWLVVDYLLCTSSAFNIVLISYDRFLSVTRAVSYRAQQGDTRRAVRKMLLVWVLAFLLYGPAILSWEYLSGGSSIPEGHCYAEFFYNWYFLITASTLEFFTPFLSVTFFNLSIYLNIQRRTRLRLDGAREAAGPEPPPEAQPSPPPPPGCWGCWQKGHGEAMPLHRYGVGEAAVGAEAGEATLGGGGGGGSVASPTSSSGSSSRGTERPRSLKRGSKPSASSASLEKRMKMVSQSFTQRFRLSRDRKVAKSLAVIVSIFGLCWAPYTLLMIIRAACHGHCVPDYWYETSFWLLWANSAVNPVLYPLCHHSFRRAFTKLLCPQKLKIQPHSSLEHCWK
Histamine H1 receptor (Homo sapiens), sequence (P35367 whole entry, the tested form may be a part): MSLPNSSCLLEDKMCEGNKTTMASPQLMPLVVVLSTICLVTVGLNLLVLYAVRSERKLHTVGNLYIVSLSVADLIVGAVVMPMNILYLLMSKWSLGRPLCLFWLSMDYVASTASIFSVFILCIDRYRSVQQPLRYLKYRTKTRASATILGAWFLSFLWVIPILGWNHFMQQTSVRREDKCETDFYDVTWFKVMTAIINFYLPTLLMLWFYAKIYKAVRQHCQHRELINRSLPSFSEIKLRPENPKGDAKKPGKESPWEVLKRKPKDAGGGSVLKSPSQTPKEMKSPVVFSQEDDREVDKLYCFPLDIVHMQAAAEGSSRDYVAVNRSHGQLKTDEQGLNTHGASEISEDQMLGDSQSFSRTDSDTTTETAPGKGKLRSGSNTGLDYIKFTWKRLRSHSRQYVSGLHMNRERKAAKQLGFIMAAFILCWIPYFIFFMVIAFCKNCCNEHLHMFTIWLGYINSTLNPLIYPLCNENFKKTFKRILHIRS
Histamine H1 receptor, sequence (P31389 whole entry): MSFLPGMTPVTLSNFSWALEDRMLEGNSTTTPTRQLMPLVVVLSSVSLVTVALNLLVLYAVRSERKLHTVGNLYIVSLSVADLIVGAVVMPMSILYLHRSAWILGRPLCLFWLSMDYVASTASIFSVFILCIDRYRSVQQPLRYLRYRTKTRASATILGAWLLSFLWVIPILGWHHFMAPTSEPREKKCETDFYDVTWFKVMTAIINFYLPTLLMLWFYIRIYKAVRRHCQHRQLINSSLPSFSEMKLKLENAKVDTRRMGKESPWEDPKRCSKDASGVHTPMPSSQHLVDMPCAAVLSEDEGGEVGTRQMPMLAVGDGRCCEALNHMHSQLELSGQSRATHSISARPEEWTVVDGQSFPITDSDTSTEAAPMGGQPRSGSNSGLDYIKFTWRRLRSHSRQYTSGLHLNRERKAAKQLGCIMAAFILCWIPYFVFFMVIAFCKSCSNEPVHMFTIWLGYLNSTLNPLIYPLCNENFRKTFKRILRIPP
Histamine H2 receptor (Cavia porcellus), sequence (P47747 whole entry, the tested form may be a part): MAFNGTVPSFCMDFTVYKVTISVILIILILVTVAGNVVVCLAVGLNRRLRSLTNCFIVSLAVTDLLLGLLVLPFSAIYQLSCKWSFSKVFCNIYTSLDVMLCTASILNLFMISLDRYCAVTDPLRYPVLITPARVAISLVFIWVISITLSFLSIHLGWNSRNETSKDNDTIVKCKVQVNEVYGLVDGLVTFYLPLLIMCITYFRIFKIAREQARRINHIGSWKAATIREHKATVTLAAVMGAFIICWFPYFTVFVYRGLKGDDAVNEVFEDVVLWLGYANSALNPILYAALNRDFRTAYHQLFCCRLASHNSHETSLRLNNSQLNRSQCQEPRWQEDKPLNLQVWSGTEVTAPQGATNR
T4 sequence (P47747 whole entry, the tested form may be a part): as above
T2 sequence (P25021 whole entry, the tested form may be a part): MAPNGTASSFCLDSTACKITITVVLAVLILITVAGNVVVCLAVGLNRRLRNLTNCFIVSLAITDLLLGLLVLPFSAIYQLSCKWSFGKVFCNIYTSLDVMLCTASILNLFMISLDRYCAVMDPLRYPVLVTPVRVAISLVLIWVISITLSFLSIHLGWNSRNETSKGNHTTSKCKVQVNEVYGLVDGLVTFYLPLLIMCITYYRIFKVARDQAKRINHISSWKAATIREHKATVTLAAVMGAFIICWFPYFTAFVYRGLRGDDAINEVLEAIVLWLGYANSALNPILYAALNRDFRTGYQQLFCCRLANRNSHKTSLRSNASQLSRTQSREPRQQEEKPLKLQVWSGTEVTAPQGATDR

pKb (Histamine H4 receptor [1]): < 5
pEC50 (Histamine H2 receptor [2]): inactive
Intrinsic activity (Histamine H3 receptor [3]): -0.16
pKb (Histamine H3 receptor [4]): < 5
pEC50 [5]: inactive
Intrinsic activity (Histamine H4 receptor [6]): -0.11
SMILES: CN/C(=N\C#N)NCCNc1nccc(N)n1

Intrinsic activity (Histamine H3 receptor [7]): -0.01
pKb [8]: < 5
pKb (Histamine H3 receptor [9]): < 5
pD'2 [10]: 4.22
pKb (Histamine H2 receptor [11]): 5.27
pKb (Histamine H4 receptor [12]): < 5
Intrinsic activity (Histamine H2 receptor [13]): -0.11
Kb (Histamine H2 receptor [14]): > 31600 nM
SMILES: CC(CC(=O)/N=C(\N)NCCCc1cccnc1)c1ccccc1 (stereo not given)

pEC50 (Histamine H2 receptor [2]): inactive
pEC50 (Histamine H4 receptor [15]): inactive
pEC50 (Histamine H3 receptor [16]): inactive
pEC50 [5]: inactive
SMILES: CN/C(=N\C#N)NCCCCNc1nc(N)n[nH]1

pKb [8]: < 5
pEC50 (Histamine H2 receptor [2]): inactive
Intrinsic activity (Histamine H3 receptor [3]): -0.24
pEC50 (Histamine H4 receptor [15]): inactive
Intrinsic activity [17]: 0.03
pKb (Histamine H3 receptor [4]): < 5
SMILES: CN/C(=N\C#N)NCCCNc1nccc(N)n1

pD'2 [10]: < 4.5
Kb (Histamine H2 receptor [14]): > 31600 nM
SMILES: Cc1nc(N)sc1CCCNC(=N)NC(=O)CC(C)c1ccccc1 (stereo not given)

Intrinsic activity (Histamine H3 receptor [7]): -0.65
pKb [8]: 5.11
pKb (Histamine H3 receptor [9]): 5.89
Intrinsic activity [17]: -0.02
pKb (Histamine H2 receptor [11]): 7.03
pKb (Histamine H4 receptor [12]): < 5
Intrinsic activity (Histamine H4 receptor [18]): -0.16
Intrinsic activity (Histamine H2 receptor [13]): -0.16
SMILES: CN(C)Cc1ccc(CCCN/C(N)=N/C(=O)CC(c2ccccc2)c2ccccc2)o1

Intrinsic activity (Histamine H3 receptor [7]): -0.46
EC50 (Histamine H4 receptor [19]): 776 nM
pKb (Histamine H3 receptor [9]): 5.35
pKb (Histamine H2 receptor [11]): 5.26
Intrinsic activity (Histamine H4 receptor [18]): 0.5
Intrinsic activity (Histamine H2 receptor [13]): 0.04
SMILES: CC(CC(=O)/N=C(\N)NCCCc1ncc[nH]1)c1cccs1 (stereo not given)

Intrinsic activity (Histamine H3 receptor [7]): 0.24
Intrinsic activity (Histamine H4 receptor [18]): 0.84
Efficacy [20]: 99%
Intrinsic activity (Histamine H2 receptor [13]): 0.87
SMILES: CC(CC(=O)/N=C(\N)NCCCc1c[nH]cn1)c1ccccc1 (stereo not given)

pKb (Histamine H4 receptor [1]): 6.21
pKb [8]: < 5.3
EC50 (Histamine H2 receptor [2]): 16200 nM
Intrinsic activity (Histamine H3 receptor [3]): -0.47
Intrinsic activity (Histamine H2 receptor [21]): -0.05
Intrinsic activity [17]: -0.01
pKb (Histamine H3 receptor [4]): < 5
Intrinsic activity (Histamine H4 receptor [6]): -0.24
SMILES: Cc1nc(CCCCN/C(=N\C#N)NCCSc2ccccc2)c[nH]1

pEC50 (Histamine H2 receptor [2]): inactive
pEC50 (Histamine H4 receptor [15]): inactive
pEC50 (Histamine H3 receptor [16]): inactive
pEC50 [5]: inactive
SMILES: CN/C(=N/C#N)NCCCCc1cnn[nH]1

Intrinsic activity (Histamine H3 receptor [7]): -0.02
pKb [8]: 5.06
pKb (Histamine H3 receptor [9]): < 5
Intrinsic activity [17]: 0.06
Kb (Histamine H1 receptor): 2570 nM
pKb (Histamine H2 receptor [11]): 5.42
pKb (Histamine H4 receptor [12]): < 5
Efficacy [20]: 41%
Intrinsic activity (Histamine H2 receptor [13]): 0.08
EC50 (Histamine H2 receptor [22]): 363 nM
SMILES: N/C(=N\C(=O)CC(c1ccccc1)c1ccccc1)NCCCc1cn[nH]c1

Intrinsic activity (Histamine H3 receptor [7]): -0.17
pKb [8]: 5.34
pKb (Histamine H3 receptor [9]): < 5
Intrinsic activity [17]: 0.21
pKb (Histamine H4 receptor [12]): < 5
Efficacy [20]: 26%
Intrinsic activity (Histamine H2 receptor [13]): 0.3
EC50 (Histamine H2 receptor [23]): 832 nM
EC50 (Histamine H2 receptor [22]): 195 nM
SMILES: CC(CC(=O)/N=C(\N)NCCCc1ccccn1)c1ccccc1 (stereo not given)

Intrinsic activity (Histamine H3 receptor [7]): -0.03
pKb [8]: < 5
pEC50 (Histamine H4 receptor [19]): inactive
pKb (Histamine H3 receptor [9]): < 5
Intrinsic activity [17]: 0.06
Kb (Histamine H1 receptor): 1620 nM
Efficacy [20]: 83%
Intrinsic activity (Histamine H2 receptor [13]): 0.42
EC50 (Histamine H2 receptor [23]): 407 nM
EC50 (Histamine H2 receptor [22]): 204 nM
SMILES: N/C(=N\C(=O)CC(c1ccccc1)c1ccccc1)NCCCc1ncn[nH]1

pKb (Histamine H4 receptor [1]): < 5
pKb [8]: < 5
pEC50 (Histamine H2 receptor [2]): inactive
Intrinsic activity (Histamine H3 receptor [3]): -0.1
Intrinsic activity [17]: 0.03
pKb (Histamine H3 receptor [4]): < 5
Intrinsic activity (Histamine H4 receptor [6]): -0.11
SMILES: CN/C(=N\C#N)NCCCCNc1ccccn1

pKb (Histamine H4 receptor [1]): < 5
pEC50 (Histamine H2 receptor [2]): inactive
Intrinsic activity (Histamine H3 receptor [3]): -0.03
pKb (Histamine H3 receptor [4]): < 5
pEC50 [5]: inactive
Intrinsic activity (Histamine H4 receptor [6]): -0.13
SMILES: CN/C(=N\C#N)NCCCNc1ccccn1

Intrinsic activity (Histamine H3 receptor [7]): -0.07
pKb [8]: < 5
pKb (Histamine H3 receptor [9]): < 5
Intrinsic activity [17]: 0.01
Kb (Histamine H1 receptor): 2340 nM
pKb (Histamine H2 receptor [11]): 5.82
pKb (Histamine H4 receptor [12]): < 5
Intrinsic activity (Histamine H2 receptor [13]): -0.07
SMILES: N/C(=N\C(=O)CC(c1ccccc1)c1ccccc1)NCCCn1ccnc1

Intrinsic activity (Histamine H3 receptor [7]): 0.04
pKb [8]: < 5
pKb (Histamine H3 receptor [9]): < 5
Kb (Histamine H1 receptor): 3800 nM
pKb (Histamine H4 receptor [12]): < 5
Efficacy [20]: 54%
Intrinsic activity (Histamine H2 receptor [13]): 0.44
EC50 (Histamine H2 receptor [23]): 240 nM
EC50 (Histamine H2 receptor [22]): 468 nM
SMILES: CC(CC(=O)/N=C(\N)NCCCc1cn[nH]c1)c1ccccc1 (stereo not given)
